ChEMBL document CHEMBL1201862, “PubChem BioAssay data set” (2004)
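Compound exposure: 48 hours, 5 concentrations, 96-well plates. GI50: concentration for 50% inhibition of growth.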 Activity calls are given as the source filed them. No stated cut-off is given here; in the data, active = GI50 up to about 1.1 µM and inactive = higher.

Tests used:
Test in all cases: NCI tumour cell line growth inhibition, 48 h
UACC-62 = tested on: UACC-62
OVCAR-4 = tested on: OVCAR-4
K562 = tested on: K562
MDA-MB-231 = tested on: MDA-MB-231
SN12C = tested on: SN12C
LOX IMVI = tested on: LOX IMVI
SK-MEL-28 = tested on: SK-MEL-28
UO-31 = tested on: UO-31
Malme-3M = tested on: Malme-3M
ACHN = tested on: ACHN
HL-60 = tested on: HL-60
UACC-257 = tested on: UACC-257
SR = tested on: SR
T47D = tested on: T47D
OVCAR-3 = tested on: OVCAR-3
KM12 = tested on: KM12
Hs-578T = tested on: Hs-578T
SW-620 = tested on: SW-620
SNB-19 = tested on: SNB-19

Measured: GI50

COc1c2c(c3c(c1CCC(=O)O)OC(C)(C)C=C3)OC(C)(C)C=C2
inactive: UACC-62 > 100 µM | OVCAR-4 > 100 µM | K562 55.8 µM | MDA-MB-231 > 100 µM | SN12C > 100 µM | LOX IMVI > 100 µM | SK-MEL-28 > 100 µM | UO-31 > 100 µM | Malme-3M > 100 µM | ACHN > 100 µM | HL-60 50.8 µM | UACC-257 > 100 µM | SR > 100 µM | T47D > 100 µM | OVCAR-3 58.7 µM | KM12 > 100 µM | Hs-578T 83.8 µM | SW-620 > 100 µM | SNB-19 > 100 µM

CCCCCC(=O)n1[nH]c(=O)n(-c2ccc(OC)cc2)c1=O
inactive: UACC-62 > 100 µM | OVCAR-4 > 100 µM | K562 > 100 µM | MDA-MB-231 > 100 µM | SN12C > 100 µM | LOX IMVI > 100 µM | SK-MEL-28 > 100 µM | UO-31 > 100 µM | Malme-3M 63.1 µM | ACHN > 100 µM | HL-60 > 100 µM | UACC-257 > 100 µM | SR > 100 µM | T47D > 100 µM | OVCAR-3 > 100 µM | KM12 > 100 µM | Hs-578T > 100 µM | SW-620 > 100 µM | SNB-19 > 100 µM

O=[N+]([O-])/C(Cl)=C(/C(Cl)=C(Cl)Cl)N1CCOCC1
inactive: UACC-62 1.92 µM | OVCAR-4 5.51 µM | K562 3.18 µM | MDA-MB-231 3.86 µM | SN12C 7.43 µM | LOX IMVI 3.66 µM | SK-MEL-28 11 µM | UO-31 6.1 µM | Malme-3M 1.44 µM | ACHN 6.01 µM | HL-60 2.28 µM | UACC-257 2.99 µM | SR 2.21 µM | T47D 2.94 µM | OVCAR-3 2.13 µM | KM12 3.34 µM | Hs-578T 3.8 µM | SW-620 2.69 µM | SNB-19 17.6 µM

CCOc1cc(NC(C)=O)ccc1C(=O)NN1C(=O)CSC1c1ccccc1 (centres undefined)
inactive: UACC-62 52 µM | OVCAR-4 84.1 µM | K562 28.8 µM | MDA-MB-231 > 100 µM | SN12C > 100 µM | LOX IMVI > 100 µM | SK-MEL-28 > 100 µM | UO-31 40.7 µM | Malme-3M 86.3 µM | ACHN > 100 µM | HL-60 33.5 µM | UACC-257 63.8 µM | SR 9.86 µM | T47D 25.7 µM | OVCAR-3 96.6 µM | KM12 71.4 µM | Hs-578T > 100 µM | SW-620 > 100 µM | SNB-19 > 100 µM

COC(=O)c1cc(C)ccc1CC(Cc1ccc(C)cc1)C(=O)OC (centres undefined)
inactive: UACC-62 > 100 µM | OVCAR-4 38.8 µM | K562 3.18 µM | MDA-MB-231 31.9 µM | SN12C > 65.5 µM | LOX IMVI 19.1 µM | SK-MEL-28 67.1 µM | UO-31 17.1 µM | Malme-3M 22 µM | ACHN > 100 µM | HL-60 4.37 µM | UACC-257 9.89 µM | SR 7.71 µM | T47D 30.8 µM | OVCAR-3 > 100 µM | KM12 10.8 µM | Hs-578T 21.2 µM | SW-620 23.5 µM | SNB-19 > 100 µM

Nc1ccccc1CCN1CCN(CCCc2ccccc2)CC1
inactive: UACC-62 84.3 µM | OVCAR-4 65.8 µM | K562 27.8 µM | MDA-MB-231 61.1 µM | SN12C 87.7 µM | LOX IMVI 34.4 µM | SK-MEL-28 97.7 µM | UO-31 27.3 µM | Malme-3M 14.1 µM | ACHN > 100 µM | HL-60 17.8 µM | UACC-257 32.5 µM | SR 25.7 µM | T47D 20.8 µM | OVCAR-3 > 100 µM | KM12 52.1 µM | Hs-578T > 100 µM | SW-620 95.3 µM | SNB-19 > 100 µM

CC1CN=C(Nc2cccc(F)c2)S1 (centres undefined)
inactive: UACC-62 > 100 µM | OVCAR-4 > 100 µM | K562 > 100 µM | MDA-MB-231 3.99 µM | SN12C > 100 µM | LOX IMVI > 100 µM | SK-MEL-28 > 100 µM | UO-31 > 100 µM | Malme-3M > 100 µM | ACHN > 100 µM | HL-60 > 100 µM | UACC-257 > 100 µM | SR 7.87 µM | T47D > 100 µM | OVCAR-3 > 100 µM | KM12 > 100 µM | Hs-578T > 100 µM | SW-620 > 100 µM | SNB-19 > 100 µM

CC1=C2NCN(C)N=C2C(C#N)(C#N)C1(C#N)C#N
inactive: UACC-62 20.8 µM | OVCAR-4 20 µM | K562 3.78 µM | MDA-MB-231 19.6 µM | SN12C 19.5 µM | LOX IMVI 20.8 µM | SK-MEL-28 21.6 µM | UO-31 18.4 µM | Malme-3M 20.4 µM | ACHN 17.9 µM | HL-60 1.93 µM | UACC-257 17 µM | SR 6.49 µM | T47D 21.7 µM | OVCAR-3 20.4 µM | KM12 > 65.9 µM | Hs-578T 32.6 µM | SW-620 10.2 µM | SNB-19 36.9 µM

Cc1ccccc1C(=N)c1ccccc1Cc1cccc2ccccc12
inactive: UACC-62 15.1 µM | OVCAR-4 28.4 µM | K562 18.2 µM | MDA-MB-231 36.4 µM | SN12C 19.2 µM | LOX IMVI 18.1 µM | SK-MEL-28 20.7 µM | UO-31 38.5 µM | Malme-3M 11.5 µM | ACHN 30.4 µM | HL-60 18.1 µM | UACC-257 25.6 µM | SR 15.9 µM | T47D 14.1 µM | OVCAR-3 13.1 µM | KM12 16.6 µM | Hs-578T 4.63 µM | SW-620 21.2 µM | SNB-19 56.1 µM

CCCC(=O)NC(Nc1cc(C)ccn1)(C(=O)OCC)C(F)(F)F (centres undefined)
inactive: UACC-62 > 100 µM | OVCAR-4 > 100 µM | K562 > 100 µM | MDA-MB-231 > 100 µM | SN12C > 100 µM | LOX IMVI > 100 µM | SK-MEL-28 > 100 µM | UO-31 > 100 µM | Malme-3M > 100 µM | ACHN > 100 µM | HL-60 > 100 µM | UACC-257 > 100 µM | SR > 100 µM | T47D > 100 µM | OVCAR-3 > 100 µM | KM12 > 100 µM | Hs-578T > 100 µM | SW-620 > 100 µM | SNB-19 > 100 µM

c1ccc2c(c1)Sc1ccccc1N2CC1CN2CCC1CC2 (centres undefined) [MEQUITAZINE]
inactive: UACC-62 3.13 µM | OVCAR-4 6.5 µM | K562 2.11 µM | MDA-MB-231 3.8 µM | SN12C 11.3 µM | LOX IMVI 3.08 µM | SK-MEL-28 2 µM | UO-31 7.06 µM | Malme-3M 1.94 µM | ACHN 10.3 µM | HL-60 3.57 µM | UACC-257 1.88 µM | SR 2.58 µM | T47D 2.63 µM | OVCAR-3 3.97 µM | KM12 5.08 µM | Hs-578T 8.2 µM | SW-620 3.58 µM | SNB-19 9.23 µM
